Our source for the inhibition values is patent US9527841B2, “Substituted pyrido[2,3-b]pyrazines as phosphodiesterase 2A inhibitors” (Takeda Pharmaceutical Company Limited, priority 2012, dated 2016).

The target of this experiment is T1, Human PDE2A3 enzyme (Homo sapiens, UniProt O00408).
T1 construct: transfected with the full-length gene; His-tag; made in house; host or cells: Sf9 insect cells
The experiment can be described thus: PDE Enzyme Inhibition Assay (SPA, [3H]cGMP). Format: biochemical. The settings on record: compound 10 μM; substrate [3H]cGMP 77 nM; 60 min at room temperature; duplicate. On the procedure:
Human PDE2A3 enzyme was generated from Sf9 cells transfected with the full-length gene. The extracted enzyme from Sf9 cells was purified by His-tag affinity column and gel filtration. The enzyme was stored at −70° C. until use. PDE activity was measured using a SPA (Scintillation Proximity Assay) (GE Healthcare). To evaluate the inhibitory activity, 10 μl of serial diluted compounds were incubated with 20 μl of PDE enzyme in assay buffer (50 mM HEPES-NaOH, 8.3 mM MgCl2, 1.7 mM EGTA, 0.1% BSA (pH 7.4)) at room temperature for 30 min. Final concentration of DMSO in the assay was 1%. The evaluation of the compounds were performed in duplicate in 96-well half-area plates (Corning) or 384-well OptiPlate (PerkinElmer). To start the reaction, 10 μl of substrate [^3H] cGMP (77 nM, PerkinElmer) was added for a final assay volume of 40 μl. After 60 min incubation at room temperature, 20 μl of yttrium SPA beads (20 mg/ml) containing zinc sulphate was added thereto to terminate the PDE reaction. After being settled for additional 1 hr, the assay plates were counted in a scintillation counter (PerkinElmer) to allow calculation of inhibition rate. Inhibition rate was calculated on the basis of 0% control wells with enzyme and DMSO, and 100% control wells without enzyme.

Molecules are shown by their SMILES.

T1 sequence (O00408 whole entry): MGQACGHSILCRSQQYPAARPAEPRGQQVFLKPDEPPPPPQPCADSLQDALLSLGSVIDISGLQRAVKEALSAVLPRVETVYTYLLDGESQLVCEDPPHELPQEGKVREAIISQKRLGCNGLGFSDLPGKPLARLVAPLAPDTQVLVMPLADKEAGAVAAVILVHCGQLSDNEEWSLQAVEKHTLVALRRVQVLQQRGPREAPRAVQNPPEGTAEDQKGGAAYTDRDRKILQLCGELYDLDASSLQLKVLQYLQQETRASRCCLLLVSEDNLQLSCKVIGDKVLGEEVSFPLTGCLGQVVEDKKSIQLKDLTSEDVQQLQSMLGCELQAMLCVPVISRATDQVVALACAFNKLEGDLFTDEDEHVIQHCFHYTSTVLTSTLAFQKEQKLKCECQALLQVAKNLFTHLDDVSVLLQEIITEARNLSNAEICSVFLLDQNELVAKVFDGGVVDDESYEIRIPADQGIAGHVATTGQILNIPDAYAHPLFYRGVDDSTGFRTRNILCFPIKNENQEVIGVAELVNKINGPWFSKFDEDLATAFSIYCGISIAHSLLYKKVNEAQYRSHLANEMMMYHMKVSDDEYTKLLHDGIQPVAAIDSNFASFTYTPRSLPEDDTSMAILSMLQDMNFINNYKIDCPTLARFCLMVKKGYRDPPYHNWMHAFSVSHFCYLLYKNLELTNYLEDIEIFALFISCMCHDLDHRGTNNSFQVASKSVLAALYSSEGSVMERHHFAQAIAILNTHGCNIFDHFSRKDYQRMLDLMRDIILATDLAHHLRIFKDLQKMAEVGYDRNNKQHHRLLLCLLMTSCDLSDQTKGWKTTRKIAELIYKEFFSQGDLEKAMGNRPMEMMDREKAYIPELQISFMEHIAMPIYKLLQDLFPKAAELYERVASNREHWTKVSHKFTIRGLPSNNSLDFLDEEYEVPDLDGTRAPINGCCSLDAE

As for `CCC(Oc1ccc(OC(F)(F)F)cc1)C(=O)N1CC(=O)Nc2cccnc21` (centres unmarked) [Example 3, optical active form of 4-(2-(4-(trifluoromethoxy)phenoxy)butanoyl)-3,4-dihydropyrido[2,3-b]pyrazin-2 (1H)-one], the inhibition at 10 µM came out at 100%.
In the case of `CCC(Oc1ccc(C(F)(F)F)cc1)C(=O)N1CC(=O)Nc2cccnc21` (centres unmarked) [Example 4, 4-(2-(4-(trifluoromethyl)phenoxy)butanoyl)-3,4-dihydropyrido[2,3-b]pyrazin-2(1H)-one] it was 98%.
For `CCC(Oc1ccc(OC(F)(F)F)cc1)C(=O)N1CC(=O)Nc2cc(C)cnc21` (centres unmarked) [Example 6, 7-methyl-4-(2-(4-(trifluoromethoxy)phenoxy)butanoyl)-3,4-dihydropyrido[2,3-b]pyrazin-2(1H)-one] the value was 100%.
For `COCCC(Oc1ccc(OC(F)(F)F)cc1)C(=O)N1CC(=O)Nc2cccnc21` (centres unmarked) [Example 18, 4-(4-methoxy-2-(4-(trifluoromethoxy)phenoxy)butanoyl)-3,4-dihydropyrido[2,3-b]pyrazin-2(1H)-one] the value was 99%.
As to `CC(C)C(Oc1ccc(C(F)(F)F)cc1)C(=O)N1CC(=O)Nc2cccnc21` (centres unmarked) [Example 21, 4-(3-methyl-2-(4-(trifluoromethyl)phenoxy)butanoyl)-3,4-dihydropyrido[2,3-b]pyrazin-2(1H)-one], testing at 10 µM gave an inhibition of 98%.
The compound `CCC(Nc1ccc(OC(F)(F)F)cc1)C(=O)N1CC(=O)Nc2cccnc21` (centres unmarked) [Example 23, 4-(2-((4-(trifluoromethoxy)phenyl)amino)butanoyl)-3,4-dihydropyrido[2,3-b]pyrazin-2(1H)-one] displayed an inhibition at 10 µM of 97%.
For `O=C1CN(C(=O)[C@@H]2CCCN2c2ccc(OC(F)(F)F)cc2)c2ncccc2N1` [Example 25, 4-(1-(4-(trifluoromethoxy)phenyl)prolyl)-3,4-dihydropyrido[2,3-b]pyrazin-2(1H)-one] the value was 96%; for `CCC(Oc1ccc(OC(F)(F)F)cc1)C(=O)N1CC(=O)Nc2ccc(C)nc21` (centres unmarked) [Example 28, optical active form of 6-methyl-4-(2-(4-(trifluoromethoxy)phenoxy)butanoyl)-3,4-dihydropyrido[2,3-b]pyrazin-2(1H)-one], 99%.
In the case of `CCC(Oc1ccc(OC(F)(F)F)cc1)C(=O)N1CC(=O)Nc2c(C)ccnc21` (centres unmarked) [Example 29, optical active form of 8-methyl-4-(2-(4-(trifluoromethoxy)phenoxy)butanoyl)-3,4-dihydropyrido[2,3-b]pyrazin-2(1H)-one] it was 99%.
For `CCC(Oc1ccc(C(C)C)cc1)C(=O)N1CC(=O)Nc2cccnc21` (centres unmarked) [Example 47, 4-(2-(4-isopropylphenoxy)butanoyl)-3,4-dihydropyrido[2,3-b]pyrazin-2(1H)-one], the inhibition at 10 µM is 98%.
In turn, `CCC(Oc1ccc(-n2cccn2)cc1)C(=O)N1CC(=O)Nc2cccnc21` (centres unmarked) [Example 55, 4-(2-(4-(1H-pyrazol-1-yl)phenoxy)butanoyl)-3,4-dihydropyrido[2,3-b]pyrazin-2(1H)-one] yielded an inhibition at 10 µM of 99%.
For `CCC(Oc1ccc(S(=O)(=O)C(F)(F)F)cc1)C(=O)N1CC(=O)Nc2cccnc21` (centres unmarked) [Example 75, 4-(2-(4-((trifluoromethyl)sulfonyl)phenoxy)butanoyl)-3,4-dihydropyrido[2,3-b]pyrazin-2(1H)-one], the inhibition at 10 µM turned out to be 95%.
In the case of `CCC(Oc1ccc(OC(F)(F)F)cc1)C(=O)N1CC(=O)Nc2ccc(-c3ccn(C)n3)nc21` (centres unmarked) [Example 132, optical active form of 6-(1-methyl-1H-pyrazol-3-yl)-4-(2-(4-(trifluoromethoxy)phenoxy)butanoyl)-3,4-dihydropyrido[2,3-b]pyrazin-2(1H)-one] it was 100%; in that of `COc1cnc2c(c1)NC(=O)CN2C(=O)C(Oc1ccc(-n2cccn2)c(F)c1)C(C)C` (centres unmarked) [Example 135, 4-(2-(3-fluoro-4-(1H-pyrazol-1-yl)phenoxy)-3-methylbutanoyl)-7-methoxy-3,4-dihydropyrido[2,3-b]pyrazin-2(1H)-one], 99%.
